Assay results reported in ChEMBL document CHEMBL1147014, “Synthesis and biological evaluation of a novel structural type of serotonin 5-HT3 receptor antagonists” (Bioorg Med Chem Lett, 2006).

Biological target: T1, 5-hydroxytryptamine receptor 3A (Cavia porcellus, UniProt O70212)
T1 sequence (O70212 whole entry): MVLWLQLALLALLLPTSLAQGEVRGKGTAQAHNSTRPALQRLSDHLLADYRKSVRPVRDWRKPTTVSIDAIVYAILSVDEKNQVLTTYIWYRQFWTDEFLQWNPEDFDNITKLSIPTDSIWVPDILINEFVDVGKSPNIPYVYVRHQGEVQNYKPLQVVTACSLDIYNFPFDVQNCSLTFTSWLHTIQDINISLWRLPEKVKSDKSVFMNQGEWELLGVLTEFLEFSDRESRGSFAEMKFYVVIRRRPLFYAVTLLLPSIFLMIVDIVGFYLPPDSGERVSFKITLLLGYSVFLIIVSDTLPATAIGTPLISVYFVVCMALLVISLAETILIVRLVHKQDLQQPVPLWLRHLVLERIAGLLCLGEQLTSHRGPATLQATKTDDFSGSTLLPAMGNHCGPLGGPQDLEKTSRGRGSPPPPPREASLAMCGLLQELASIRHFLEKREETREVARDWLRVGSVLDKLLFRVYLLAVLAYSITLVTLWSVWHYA
Test: Antagonist effect against 2-methyl-5-HT activity at 5-HT3 receptor in longitudinal muscle myenteric plexus from guinea pig ileum
Format: functional, tissue-based
Settings: read-out: pA2 (converted)

Work on `CCOc1nc2ccccc2nc1C(=O)Nc1ccc(O)c(CN2CCNCC2)c1` yielded a Kb of 398 µM.

`COc1nc2ccccc2nc1C(=O)Nc1ccc(O)c(CN2CCOCC2)c1` was tested, and the Kb was 1000 µM.

`COc1nc2ccccc2nc1C(=O)Nc1ccc(O)c(CN2CCCC2)c1` gave a Kb of 126 µM.

`CCOc1nc2ccccc2nc1C(=O)Nc1cc(CN2CCNCC2)c(O)c(N2CCNCC2)c1` showed a Kb of over 1000 µM.

In the case of `COc1nc2ccccc2nc1C(=O)Nc1ccc(O)c(CN2CCCCC2)c1`, the Kb is reported as 316 µM.

With `CCOc1nc2ccccc2nc1C(=O)Nc1cc(CN2CCCC2)c(O)c(N2CCCC2)c1` the Kb was over 1000 µM.

Work on `COc1nc2ccccc2nc1C(=O)Nc1cc(CN2CCN(C)CC2)c(O)c(N2CCN(C)CC2)c1` yielded a Kb of 15.8 µM.

Compound `CCN1CCN(Cc2cc(NC(=O)c3nc4ccccc4nc3OC)cc(N3CCN(CC)CC3)c2O)CC1` has a Kb of 79.4 µM.

In the case of `COc1nc2ccccc2nc1C(=O)Nc1cc(CN2CCOCC2)c(O)c(N2CCOCC2)c1`, the Kb is reported as over 1000 µM.

Compound `COc1nc2ccccc2nc1C(=O)Nc1ccc(O)c(CN2CCNCC2)c1` has a Kb of 31.6 µM.

`COc1nc2ccccc2nc1C(=O)Nc1ccc(O)c(CN2CCN(C)CC2)c1` was tested, and the Kb was 2 µM.

With `CCOc1nc2ccccc2nc1C(=O)Nc1cc(CN2CCN(CC)CC2)c(O)c(N2CCN(CC)CC2)c1` the Kb was over 1000 µM.

Compound `CCOc1nc2ccccc2nc1C(=O)Nc1cc(CN2CCN(C)CC2)c(O)c(N2CCN(C)CC2)c1` has a Kb of over 1000 µM.

For `CCOc1nc2ccccc2nc1C(=O)Nc1ccc(O)c(CN2CCCCC2)c1`, the Kb was 794 µM.

Work on `COc1nc2ccccc2nc1C(=O)Nc1cc(CN2CCNCC2)c(O)c(N2CCNCC2)c1` yielded a Kb of 100 µM.

In the case of `CCOc1nc2ccccc2nc1C(=O)Nc1ccc(O)c(CN2CCN(C)CC2)c1`, the Kb is reported as 25.1 µM.

`CCOc1nc2ccccc2nc1C(=O)Nc1ccc(O)c(CN2CCN(CC)CC2)c1` gave a Kb of 126 µM.

In the case of `CCOc1nc2ccccc2nc1C(=O)Nc1cc(CN2CCOCC2)c(O)c(N2CCOCC2)c1`, the Kb is reported as over 1000 µM.

`CCOc1nc2ccccc2nc1C(=O)Nc1ccc(O)c(CN2CCCC2)c1` gave a Kb of 316 µM.

`CCOc1nc2ccccc2nc1C(=O)Nc1ccc(O)c(CN2CCOCC2)c1` showed a Kb of over 1000 µM.

For `CCN1CCN(Cc2cc(NC(=O)c3nc4ccccc4nc3OC)ccc2O)CC1`, the Kb was 12.6 µM.

With `COc1nc2ccccc2nc1C(=O)Nc1cc(CN2CCCC2)c(O)c(N2CCCC2)c1` the Kb was over 1000 µM.
